According to PubChem BioAssay AID1259418 (Broad Institute, 2018):
Where “and” joins values, the source holds several entries; their conditions need not be identical. Equal entries are not always repeated. Results filed as inconclusive are left out. Calls of active or inactive are those of the source.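 How the source made its calls: active means fitted half-maximal concentration of signal decrease at or below twice the sample's top tested concentration; inconclusive means flat curve between -70 and -30 percent, or poor fit; inactive means flat within 30 percent, signal rise, or potency above limit.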

The compounds below were run against T. gondii ME49Luc in IFN-y HeLa, luciferase, 72 h (assay: inhibitors of Toxoplasma growth in IFN-γ-primed HeLa – cell-based, ME49Luc, luciferase, 72 h, dose response (AID 1259418)).

Question: `O=C(Nc1ccc(F)cc1)N1CC(=O)N2[C@H](C1)[C@H](c1ccc(-c3cccc(F)c3)cc1)[C@@H]2CO` was tested. Which AC50 did it give?
Answer: 17.9 µM

Question: How did the AC50 turn out when `CC(C)NC(=O)N1CC(=O)N2[C@@H](CO)[C@H](c3ccc(/C=C/c4ccccc4)cc3)[C@@H]2C1` was run?
Answer: 16.8 µM

Question: For `CC(C)c1ccc(S(=O)(=O)N2CCC(C(=O)NCCc3csc(-c4ccccc4)n3)CC2)cc1`, which AC50 is on record?
Answer: 12.7 µM

Question: With `COc1ccc(CNC(=O)CC2N=C3c4ccccc4N=C(SCc4ccc(F)cc4)N3C2=O)cc1` (stereo not given) as the compound, how does the AC50 read?
Answer: 22.6 µM

Question: `Cc1cc(C(F)(F)F)nn1CC(=O)N1CCCC1c1cc(C(C)C)on1` (stereo not given) was tested. Which AC50 did it give?
Answer: 32.6 µM

Question: For `COc1cccc(C(=O)Nc2ccc3c(c2)C(=O)N(C)[C@@H]2CC[C@H](CC(=O)NCc4ccc(F)cc4)O[C@@H]2CO3)c1`, which AC50 is on record?
Answer: 9.13 µM

Question: With `C[C@H]1CN([C@@H](C)CO)C(=O)c2cccc(NS(=O)(=O)c3ccc(F)cc3)c2O[C@H]1CN(C)Cc1ccc(Cl)c(Cl)c1` as the compound, how does the AC50 read?
Answer: 19.2 µM and 11.7 µM

Question: Which AC50 does the source give for `O=S(=O)(c1ccc2c(c1)CCCC2)N1CCC2(CC1)NCCN=C2NCc1cc(F)cc(F)c1` here?
Answer: 4.41 µM

Question: `O=S(=O)(c1ccc(Cl)s1)N1CCC2(CC1)NCCN=C2NCc1ccc2c(c1)OCO2` was tested. Which AC50 did it give?
Answer: 34.8 µM

Question: How did the AC50 turn out when `O=C(CCC1N=C2c3ccccc3N=C(SCc3cccc(F)c3)N2C1=O)NCc1cccs1` (stereo not given) was run?
Answer: 20.3 µM

Question: Which AC50 does the source give for `COc1cccc(NC(=O)N2CC(=O)N3[C@H](CO)[C@H](c4ccc(C#CCC5CCCC5)cc4)[C@@H]3C2)c1` here?
Answer: 17.6 µM

Question: For `COc1ccc(-c2nc(NCCN3CCCCC3C)c3ccccc3n2)cc1` (stereo not given), which AC50 is on record?
Answer: 13.4 µM

Question: For `Cc1ccc(C(=O)N2CCC3(CC2)Nc2cc(F)ccc2-n2cccc23)cc1C`, which AC50 is on record?
Answer: > 39 µM (inactive)

Question: For `COc1ccc(-c2nc(Cn3nnc(-c4nc(-c5ccc(OC)c(OC)c5)no4)c3C)c(C)o2)cc1`, which AC50 is on record?
Answer: 20.6 µM

Question: How did the AC50 turn out when `O=C(NC1CCCC1)N1CCCCN2[C@H](CO)[C@H](c3ccc(-c4cccnc4)cc3)[C@H]2C1` was run?
Answer: 24.1 µM

Question: Which AC50 does the source give for `N#Cc1ccc(-c2ccc([C@@H]3[C@@H]4CN(C(=O)Nc5ccc6c(c5)OCO6)C[C@H]3N4)cc2)cc1` here?
Answer: 17.9 µM

Question: With `CCOc1ccc(-c2nc(CN(c3ccc(OCC)cc3)S(=O)(=O)c3ccccc3)c(C)o2)cc1` as the compound, how does the AC50 read?
Answer: 17.1 µM

Question: With `COc1ccc(CNC(=O)CCC2N=C3c4ccccc4N=C(SCc4cccc(F)c4)N3C2=O)cc1` (stereo not given) as the compound, how does the AC50 read?
Answer: 20.4 µM

Question: `Cc1ccc(-c2nc(CN3CCN(C(=O)Nc4ccc(F)cc4)CC3)c(C)o2)cc1` was tested. Which AC50 did it give?
Answer: 33.3 µM

Question: How did the AC50 turn out when `COCC1CN(C(=O)c2ccccc2F)Cc2cnn(CC3CC3)c21` (stereo not given) was run?
Answer: 35.8 µM

Question: How did the AC50 turn out when `O=S(=O)(c1ccccc1)N1CCc2c([nH]c3ccccc23)C1c1cc(F)ccc1F` (stereo not given) was run?
Answer: 12.6 µM

Question: With `COc1ccc(-c2nc(NCCCN3CCOCC3)c3ccccc3n2)cc1` as the compound, how does the AC50 read?
Answer: 16.6 µM

Question: `O=S(=O)(c1ccccc1)N1CCCCN2[C@H](CO)[C@@H](c3ccc(C#CC4CCCC4)cc3)[C@@H]2C1` was tested. Which AC50 did it give?
Answer: 13.4 µM

Question: With `Cc1c(Cl)cccc1NC(=O)CN1CCC2(CC1)N=C(c1cccc(F)c1)C(=O)N2` as the compound, how does the AC50 read?
Answer: > 39 µM (inactive)

Question: With `OC[C@H]1[C@@H](c2ccc(C#Cc3ccccc3F)cc2)[C@@H]2CN(CC3CCOCC3)CCCCN12` as the compound, how does the AC50 read?
Answer: 15.9 µM

Question: Which AC50 does the source give for `OC[C@H]1[C@H](c2ccc(C#Cc3ccccc3F)cc2)[C@@H]2CN(CC3CCOCC3)CCCCN12` here?
Answer: 9.56 µM

Question: Which AC50 does the source give for `COc1ccccc1NC(=O)N1C[C@H](O)COC[C@@H]2O[C@@H](CC(=O)N3CCC(Cc4ccccc4)CC3)CC[C@H]21` here?
Answer: 22.9 µM and > 39 µM (inactive)

Question: Which AC50 does the source give for `COc1ccc2c(c1)NC1(CCN(C(=O)C3CCCCC3)CC1)c1cccn1-2` here?
Answer: > 39 µM (inactive)

Question: How did the AC50 turn out when `CN1C(=O)c2cc(NC(=O)Cc3cccs3)ccc2OC[C@@H]2O[C@H](CC(=O)N[C@H]3CCN(Cc4ccccc4)C3)CC[C@@H]21` was run?
Answer: 7.53 µM

Question: With `Cc1ccc(C(=O)N2CCC3(CC2)Nc2ccc(Cl)cc2-n2cccc23)cc1F` as the compound, how does the AC50 read?
Answer: > 39 µM (inactive)

Question: For `COc1ccc(N(Cc2nc(-c3ccc(OC)c(OC)c3)oc2C)S(=O)(=O)c2ccccc2)cc1`, which AC50 is on record?
Answer: 9.25 µM

Question: Which AC50 does the source give for `O=C(C[C@H]1CC[C@H]2[C@@H](COC[C@H](O)CN2Cc2ccc(Oc3ccccc3)cc2)O1)N1CCN(c2ccccc2)CC1` here?
Answer: 12.1 µM and 21.2 µM

Question: `COc1ccccc1N(Cc1nc(-c2cccc(C)c2)oc1C)S(=O)(=O)c1ccc(C)cc1` was tested. Which AC50 did it give?
Answer: 9.12 µM

Question: How did the AC50 turn out when `COc1ccc(-c2nc(CN(c3ccccc3OC)S(=O)(=O)c3ccccc3)c(C)o2)cc1OC` was run?
Answer: 3.59 µM

Question: With `Cc1ccsc1C(=O)N1CCc2nc(N3CCOCC3)nc(NC(C)C)c2C1` as the compound, how does the AC50 read?
Answer: > 39 µM (inactive)

Question: Which AC50 does the source give for `O=C(CC1N=C2c3ccccc3N=C(SCc3ccc(Cl)cc3)N2C1=O)NCc1cccs1` (stereo not given) here?
Answer: 29.4 µM

Question: `Cc1ccccc1S(=O)(=O)N1CC[C@@H]2[C@H]1c1cc(-c3cccc(F)c3)ccc1N(C)[C@H]2CO` was tested. Which AC50 did it give?
Answer: 17.7 µM

Question: How did the AC50 turn out when `COc1cccc(-c2nc3c(s2)CN(S(=O)(=O)c2cccc(F)c2)CC3)c1` was run?
Answer: 11.3 µM

Question: `O=C(NCCCN1CCCC1)C1CCN(Cc2cc3ccccc3n2Cc2ccccc2)CC1` was tested. Which AC50 did it give?
Answer: 23 µM

Question: With `Cc1ccccc1CN1C[C@@H]2c3nc(N4CCCC(C)C4)ncc3CS(=O)(=O)[C@H]2C1` (stereo not given in full) as the compound, how does the AC50 read?
Answer: 24.5 µM and 4.74 µM

Question: `COc1ccccc1-c1ccc([C@@H]2[C@H](CO)N3CCCCN(C(=O)c4cccnc4)C[C@@H]23)cc1` was tested. Which AC50 did it give?
Answer: 17.2 µM

Question: How did the AC50 turn out when `COc1ccc(OCC(=O)N2CCC3(CC2)Nc2ccc(Cl)cc2-n2cccc23)cc1` was run?
Answer: > 39 µM (inactive)

Question: How did the AC50 turn out when `N#C[C@H]1N[C@@H](CO)[C@@H]1c1ccc(C#CC2CCCCC2)cc1` was run?
Answer: 19.1 µM

Question: How did the AC50 turn out when `Cc1ccccc1-c1nc(CN2CCN(C(=O)Nc3ccc(F)cc3)CC2)c(C)o1` was run?
Answer: > 39 µM (inactive)

Question: Which AC50 does the source give for `O=C(CC1CCC2(CC1)CCN(c1ncc(F)cn1)CC2)N1CC=CC1` here?
Answer: 19.3 µM
